Experimental data published in patent US8614250B2 (Industry-Academic Cooperation Foundation, Yonsei University, priority 2011, dated 2013).
Marks after values point to notes of the source that are not given here.

Columns and labels:
[1] = Body weight gain, food intake and visceral fat-pad weights in mice fed high-fat diet supplemented with adipic acid; assay type: in vivo, C57BL/6J mice; conditions: 0.2% adipic acid in high-fat diet, 10 weeks
Text: (§1) The obesity-inducing control diet used in the test was high-fat diet (HFD: 40% fat calorie, 17 g lard+3% corn oil/100 g diet). […] The normal diet group (Chow) was fed with commercially available rodent chow.
(§2) 5-week-old male C57BL/6J mice (Orient, Korea) were accustomed to the laboratory environment for 1 week while feeding solid feed. Then, they were randomly divided into normal diet, high-fat diet and test groups and bred for a total of 10 weeks. The diet was given between 10 and 11 a.m. every day together with water. Food intake was measured every day and body weight was measured once a week. In order to avoid transient body weight increase after feed intake, body weight was measured 2 hours after removing the feed. After fasting the test animal for at least 12 hours and anesthetizing with diethyl ether, blood, liver and visceral fat (epididymal fat, perirenal fat, mesenteric fat and retroperitoneal fat) were taken and weighed after washing with 0.1 M PBS (pH 7.4). Blood taken from the abdominal aorta was centrifuged at 1000×g for 15 minutes for the separation of plasma.

[2] = Biochemical analysis of blood (plasma lipids, glucose, ALT, AST) in mice fed test diets; assay type: in vivo, C57BL/6J mice; conditions: 10 weeks
Text: as §1, §2
After 10 weeks of breeding, total cholesterol, triglyceride and glucose levels in the plasma and lipid levels in the liver tissue were measured as follows. Total cholesterol, triglyceride, free fatty acid and glucose levels in the plasma were measured twice for each using a commercially available kit (Bio Clinical System). The activity of ALT (alanine aminotransferase) and AST (aspartate aminotransferase) used as liver function indicator were measured twice for each using a commercially available kit (Bio Clinical System, Korea).

[3] = Liver weight and lipid level in liver tissues of mice fed test diets; assay type: in vivo, C57BL/6J mice; conditions: 10 weeks
Text: as §1, §2
Lipids were extracted from the liver tissue according to Folch et al.'s method Folch J et al., J Biol Chem. 226: 497-509 (1957)). After adding 1 mL of distilled water to 0.25 g of liver tissue, the liver tissue was homogenized using a Polytron homogenizer (IKA-Werke GmbH & Co., Ultra-Turrax, Staufen, Germany). After adding 5 mL of chloroform:methanol solution (2:1, v/v) to the homogenate and mixing well, the mixture was centrifuged at 1000×g for 10 minutes. After adding 2 mL of chloroform:methanol solution (2:1, v/v) again to the supernatant, the same procedure was repeated to completely separate the lipid components of the liver. After adding 3 mL of chloroform:methanol:0.05% CaCl2 (3:48:47, v/v/v) solution to the remaining pellets and mixing well for 1 minute, followed by centrifugation at 1000×g for 10 minutes, the resulting pellets were completely dried with nitrogen gas. The dried lipids were dissolved in 1 mL of methanol and then analyzed.
The same kit (Bio Clinical System) as that used for the plasma analysis was used to measure the triglyceride and cholesterol levels of the liver tissue.

[4] = test system: C/EBPα gene expression; assay: RT-PCR analysis of visceral fat tissues; assay type: in vivo, C57BL/6J mice; conditions: mRNA, versus HFD
Experimental: (§3) After adding 1 mL of Trizol agent per 0.1 g of visceral fat tissues, the mixture was homogenized and centrifuged at 12,000×g for 10 min at 4° C. The supernatant was transferred to a new tube and 200 μl of chloroform was added to the tube, followed by vortexing. The same procedure was repeated twice and then the supernatant was transferred to a new tube, followed by addition of isopropanol and the supernatant at 1:1 ratio. The mixture was vigorously shaken 10 times and then incubated for 10 min at room temperature, followed by centrifugation at 12,000×g for 10 min at 4° C. to remove the supernatant. After adding 1 mL of 70% ethanol to the remaining pellet, it was centrifuged at 7,500×g for 5 min at 4° C. After removing the ethanol, the RNA pellet contained in the tube was dried for 5 min at 4° C. and dissolved in nuclease-free water. The RNA sample concentration was measured at a wavelength of 260 nm and 280 nm using a UV/VIS spectrophotometer (Beckman coulter, DU730) and the integrity of RNA sample was verified by agarose gel electrophoresis.
(§4) The RNA sample obtained from the visceral fat tissues was transcribed using oligo dT primer and SuperScript reverse transcriptase (GIBCO BRL, Gaithersburg, Md., USA) to synthesize cDNA. The PCR amplification was performed using the cDNA as templates and primers complementary to cDNA 5′ and 3′ flanking sequence. The amplified products were resolved on agarose gel electrophoresis.

[5] = test system: IL-6 gene expression; assay: RT-PCR analysis of visceral fat tissues; assay type: in vivo, C57BL/6J mice; conditions: mRNA
Experimental: as §3, §4

[6] = test system: PPARγ2 gene expression; assay: RT-PCR analysis of visceral fat tissues; assay type: in vivo, C57BL/6J mice; conditions: mRNA, versus HFD
Experimental: as §3, §4

[7] = test system: TNF-α gene expression; assay: RT-PCR analysis of visceral fat tissues; assay type: in vivo, C57BL/6J mice; conditions: mRNA
Experimental: as §3, §4

[8] = test system: aP2 gene expression; assay: RT-PCR analysis of visceral fat tissues; assay type: in vivo, C57BL/6J mice; conditions: mRNA, versus HFD
Experimental: as §3, §4

[9] = rat; ketosis caused by long-chain and short-chain monocarboxylic acids; cited from earlier work
[10] = patients treated for 8 weeks; cited from earlier work

O=C(O)CCCCC(=O)O [adipic acid]
daily food intake [1]: no significant change | decrease of body weight gain as compared to HFD [1]: 49% | epididymal fat-pad weight as compared to HFD [1]: significantly reduced | mesenteric fat-pad weight as compared to HFD [1]: significantly reduced | perirenal fat-pad weight as compared to HFD [1]: significantly reduced | reduction of total visceral fat weight as compared to HFD [1]: 21% | retroperitoneal fat-pad weight as compared to HFD [1]: significantly reduced | decrease of plasma ALT activity as compared to HFD [2]: 40% | decrease of plasma AST activity as compared to HFD [2]: 27% | lower plasma free fatty acid level as compared to HFD [2]: 32% | lower plasma total cholesterol level as compared to HFD [2]: 24% | lower plasma triglyceride level as compared to HFD [2]: 26% | reduction of fasting blood sugar level as compared to HFD [2]: 25% | ALT ([2]; plasma, mean ± SEM): 7.9 ± 0.78^c IU/L | AST ([2]; plasma, mean ± SEM): 8.9 ± 0.28^b IU/L | Free fatty acid ([2]; plasma, mean ± SEM): 890 ± 56^c uEq/L | Total cholesterol ([2]; plasma, mean ± SEM): 2.66 ± 0.41^b mmol/L | Triglyceride ([2]; plasma, mean ± SEM): 0.89 ± 0.05^b mmol/L | Glucose ([2]; plasma, fasted, mean ± SEM): 6.6 ± 0.41^b mmol/L | decrease of cholesterol level in liver tissue as compared to HFD [3]: 44% | decrease of free fatty acid level in liver tissue as compared to HFD [3]: 37% | decrease of triglyceride level in liver tissue as compared to HFD [3]: 26% | reduction of liver absolute weight as compared to HFD [3]: 12% | expression of C/EBPα gene [4]: significantly decreased | HFD-induced elevation in the expression of IL-6 [5]: significantly reversed | expression of PPARγ2 gene [6]: significantly decreased | HFD-induced elevation in the expression of TNF-α [7]: significantly reversed | expression of aP2 gene [8]: significantly decreased | effect on ketosis [9]: effective for improving ketosis

CCOC(=O)C1=C(COCCN)NC(C)=C(C(=O)OC)C1c1ccccc1Cl.O=C(O)CCCCC(=O)O (stereo not drawn) [amlodipine adipate]
symptoms of hypertension [10]: alleviated symptoms of hypertension
